We go through one sequence from PMC10937676, “Targeting the NTSR2/TrkB oncogenic pathway in chronic lymphocytic leukemia” (Scientific Reports, 2024).

The subject of one test is AKT. Kind of test: Immunoblot, relative phosphorylation level of AKT in CLL-B cells. Format: cell-based, human. To be noted: CLL-B cells from 10 patients, overnight, 10 µM. The procedure:
Figure 5 The peptide inhibits kinase phosphorylation. CLL-B cells from 10 patients were incubated overnight, with or without 10 µM of TAT-Pep. Whole cell lysates were then prepared, and 10 µg of proteins were immunoblotted to assess the following parameters. (A) Relative phosphorylation level of SRC. (B) Relative phosphorylation level of AKT. (C) Relative phosphorylation level of LYN. (D) Relative phosphorylation level of BTK. (E) Relative phosphorylation level of all tyrosine-phosphorylated proteins.
Whole cell lysate proteins were extracted using RIPA buffer (Sigma-Aldrich) and sonication (VibraCell™). Plasma membrane proteins were recovered by using the Plasma Membrane Protein Extraction Kit (Abcam) according to the manufacturer’s instructions. A list of the antibodies used for immunoblotting is available in Supplementary Table 2. Bands were quantitatively assessed by densitometry using Fiji software. To evaluate the level of interaction of NTSR2 and TRKB we normalized the density of the TRKB bands by the density of the NTSR2 bands to obtain the relative amount of TRKB co-precipitated through NTSR2.
(In general: A western blot detects proteins with antibodies after separation by electrophoresis.)

The subject of a further test is MCL-1. As to the kind of experiment: Immunoblot, relative level of anti-apoptotic protein MCL-1 in CLL-B cells. Type of test: cell-based, human. The following applies: CLL-B cells from 10 patients, overnight, 10 µM. From the text: Concerning anti-apoptotic protein expression, a decrease in anti-apoptotic proteins BCL-2; BCL-XL and MCL-1 was observed after TAT-Pep treatment of CLL-B cells, possibly as a consequence of the SRC kinase inactivation (Fig. 6A–C). To unveil whether the regulation mechanism behind the observed modifications was transcriptional or post-transcriptional, we evaluated the mRNA levels of all three anti-apoptotic proteins following peptide treatment. […] To further underline that the induction of cell death following TAT-Pep treatment involved apoptosis regulation pathways, we used B cells from six CLL patients and stained them with Annexin V in both TAT-Pep treated and untreated conditions. […]
Figure 6 The peptide lowers anti-apoptotic proteins levels. […] CLL-B cells from 12 patients were incubated overnight, with or without 10 µM of TAT-Pep, subsequently RNA was extracted from cell lysates and mRNA levels of BCL-2 (D); BCL-XL (E) and MCL-1 (F) were evaluated using RTqPCR; 18S was used as a housekeeping gene. (G) Increased concentrations (0 to 30 µM) of TAT-Pep were incubated with 20,000 CLL-B, and the number of Annexin V-positive cells was measured using the Incucyte live-cell imaging device. Fluorescence was monitored for 48 h. […] The ‘Green Object Count/Phase Object Count’ ratio was determined using the Incucyte analysis software to obtain the percentage of apoptotic cells. […]

For the next test, the target named is NTSR2/TRKB interaction (Homo sapiens, UniProt Q16620). Kind of test: Proximity ligation assay (PLA) for NTSR2 and TRKB in CLL-B cells. Type of test: cell-based. Further details: endogenous in cells; host or cells: primary CLL-B cells from three CLL patients. To be noted: CLL-B cells from three CLL patients, 10 µM overnight; compared with TAT alone or untreated; spots counted in 50 cells. The procedure:
Nuclei were stained with DAPI (blue). […] (C) Representative immunoblot of 3 independent experiments. […] Nuclei were stained with DAPI (blue). Magnification × 40.
In a second approach, we investigated the inhibition of the NTSR2/TRKB interaction in CLL-B cells from three CLL patients using PLA on NTSR2 and TRKB. The leukemic B cells were either treated with the TAT-Pep peptide, TAT alone, or left untreated, and then the proximity ligation assay was performed (Fig. 4E,F).
Cells were fixed with methanol at − 20 °C for 10 min and then the Duolink kit (Sigma) was used to perform the PLA according to the manufacturer’s instructions. Before observation, cells were mounted on glass slides with DAPI-containing mounting medium and results were observed by confocal microscopy (LSM880, Zeiss) and analyzed using the Fiji software (ImageJ).

Chain of NTSR2/TRKB interaction (Q16620 32-822): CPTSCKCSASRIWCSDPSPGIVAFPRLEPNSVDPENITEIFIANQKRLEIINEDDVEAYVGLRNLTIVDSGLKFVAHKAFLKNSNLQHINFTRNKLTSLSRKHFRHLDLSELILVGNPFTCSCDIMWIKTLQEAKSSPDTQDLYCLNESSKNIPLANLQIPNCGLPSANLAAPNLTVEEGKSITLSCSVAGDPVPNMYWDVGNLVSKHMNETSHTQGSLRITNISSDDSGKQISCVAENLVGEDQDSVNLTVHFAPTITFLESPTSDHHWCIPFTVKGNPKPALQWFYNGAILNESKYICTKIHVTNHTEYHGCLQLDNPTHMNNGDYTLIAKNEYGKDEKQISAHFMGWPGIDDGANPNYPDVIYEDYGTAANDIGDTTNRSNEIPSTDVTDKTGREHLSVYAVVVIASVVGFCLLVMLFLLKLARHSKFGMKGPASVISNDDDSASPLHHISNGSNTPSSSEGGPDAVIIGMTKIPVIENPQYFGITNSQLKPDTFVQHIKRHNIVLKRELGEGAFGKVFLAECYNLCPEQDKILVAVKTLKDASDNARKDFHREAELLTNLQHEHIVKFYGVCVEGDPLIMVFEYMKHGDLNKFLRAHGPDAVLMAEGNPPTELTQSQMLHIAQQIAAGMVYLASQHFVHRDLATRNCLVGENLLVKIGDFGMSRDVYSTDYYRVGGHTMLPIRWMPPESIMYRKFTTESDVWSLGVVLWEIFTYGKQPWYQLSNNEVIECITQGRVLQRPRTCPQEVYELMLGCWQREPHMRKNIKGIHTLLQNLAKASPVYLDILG

Turning to “GRKKRRQRRRPPQNAVSSSFRKLFLEAVSSLCGEHHPMKRLPPKPQSPTLMDTASGFGDPPETRT [TAT-Pep]”, in the test on AKT, the “AKT phosphorylation (in words)” value was “did not observe any variation”. In the test on MCL-1, the “level of anti-apoptotic protein MCL-1 (in words)” value is given as “decrease”. Moreover, the “PLA red fluorescence spots (proximity of NTSR2 and TRKB), in words” value at NTSR2/TRKB interaction is on record as “dramatically reduced”.
